The values below come from patent publication US20170152490A9, “USE OF ACTIVIN RECEPTOR-LIKE KINASE 1 (ALK-1) ANTAGONISTS IN THE TREATMENT OF CANCER” (Acceleron Pharma, Inc., priority 2014, published 2017).

“Also recorded” adds a separate entry of the source.

For series [1] the following is noted: cited from earlier work; for typical maximum tolerated dose: body surface.
The subject of series [2] is RPMI2650 xenograft (Nasal Septum Carcinoma cells, ATCC# CCL-30). As to the kind of experiment: RPMI2650 head and neck carcinoma xenograft, tumor growth. The note with it: for TGI (tumor growth inhibition): day 30, after 3 weeks of dosing; for TGI (tumor growth inhibition) / GMDV (geo mean of final tumor volume/geo mean of initial tumor volume): ACE-041 10 mg/kg i.p. tiw, cisplatin 5 mg/kg i.v. qw; for GMDV (geo mean of final tumor volume/geo mean of initial tumor volume): day 30. The class given is in vivo, Mus musculus (Hsd: Athymic Nude-Foxn1nu). How it is done: Tumor implantation. RPMI2650 (ATCC #CCL-30) were grown in Eagle's Minimum Essential Medium (ATCC Cat. No 30-2003), supplemented with fetal bovine serum (Gibco, Cat. No 26140) to a final concentration of 10%. Cell were harvested by mild trypsin digestion, washed in SFM and resuspended at a concentration of 50×10E6/ml in SFM. 0.1 ml (5×10E6 cells) of the cell suspension was injected subcutaneously in the right flank of a nude mouse.
Tumor measurement. Tumor size was measured manually using digital calipers. Tumor volume was calculated using the formula for a modified ellipse ((Length*Width2)/2).
Data Analysis. […] TGI was calculated according to the formula:
TGI=(GMDV(C)−GMDV(T))*100/(GMDV(C)−1), where GMDV=Geomean(final volumes)/Geomean(intitial volumes)

The nature of series [3]: Animal body weight / tolerability in the RPMI2650 xenograft study. As to conditions: for Average changes in body weight: ACE-041 10 mg/kg i.p. tiw.
Experimental: Nasal Septum Carcinoma cells (RPMI2650, ATCC# CCL-30) were injected subcutaneously in the right flank (5×10E6 in 0.1 ml of SFM) of 8-week old female mice. Nine days following implantation animals were randomized into 4 groups based on tumor volume. Animal dosing and tumor measurement was done three times a week.
Data Analysis. Graphing and statistical analysis of the tumor volume and body weight data was done using GraphPad Prism 5 software (GraphPad Software Inc., La Jolla, Calif.). Unpaired two-tailed t-test (with or w/o Welch correction) was used to determine statistical significance.
Series [4] relates to advanced, refractory solid tumors including SCCHN. Kind of series: Phase 1 study of dalantercept in patients with advanced, refractory solid tumors. It is filed as in vivo, human. As to conditions: patients incl. SCCHN.
The subject of series [5] is recurrent or metastatic squamous cell carcinoma of the head and neck (SCCHN). Kind of series: Phase 2 study of Dalantercept in recurrent or metastatic SCCHN. The class given is in vivo, human. How it is done: Methods: 46 patients were enrolled and received Dalantercept SC Q3W at 80 mg (n=2), 0.6 mg/kg (n=13), and 1.2 mg/kg (n=31) until disease progression or unacceptable toxicity. Archived and optional biopsies and serum were collected for PD (pharmacodynamic) studies . The primary endpoint was response rate (RR) per RECIST 1.1 and secondary endpoints included progression free survival and overall survival. Key eligibility: recurrent or metastatic SCCHN of mucosal origin, >1 one prior platinum regimen, ECOG performance status ≦1, and no prior anti-angiogenic therapy.

The mark [6] stands for this setting: Day 9 (randomization, start of dosing), s.c. RPMI2650 xenograft, nude mice.
Setting [7] is: Day 30, ACE-041 10 mg/kg i.p. tiw x3, cisplatin 5 mg/kg i.v. qw x3.
The mark [8] stands for this setting: day 30, cisplatin 5 mg/kg i.v. qw.

Turning to `N.N.N.N.N.N.NCCCCCCN.NCCCCCCN.[Cl-].[Cl-].[Pt+2].[Pt+2].[Pt+2]` [Triplatin], the “typical maximum tolerated dose” value in series [1] is listed as 0.9-1.1 mg/m^2.
As for `N.N.[Cl][Pt][Cl]` [Cisplatin, cisplatin], the “Tumor volume (geo mean)” value in series [2] (setting [6]) came to 185.8 mm3. The “Tumor volume (geo mean)” value in series [2] (setting [7]) is 1001 mm3. In addition, in series [2], the “TGI (tumor growth inhibition)” value stood at 35% and the “GMDV (geo mean of final tumor volume/geo mean of initial tumor volume)” value worked out at 5.4. In series [3] (setting [8]), the “Average changes in body weight” value was −12.9% and the “cumulative body weight loss on average” value is about 13%. The “body weight loss of some animals (as much as)” value in series [3] (individual animals, triggered termination of the study) was at most 20%. The “typical maximum tolerated dose” value in series [1] was 60-100 mg/m^2. For the same molecule, the maximum tolerated dose result in series [1] (typical, most patients) is reported as “about 5 mg/kg/day”.
Regarding “ACE-041: Soluble ALK1-IgG1 fusion protein (ALK1 extracellular domain-Fc), see SEQ ID NO: 3; ligand trap to BMP 9 and 10”, the “Tumor volume (geo mean)” value is 181.4 mm3 in series [2] (setting [6]) and 1024 mm3 in series [2] (setting [7]). The “TGI (tumor growth inhibition)” value in series [2] was 32%. Moreover, the “GMDV (geo mean of final tumor volume/geo mean of initial tumor volume)” value in series [2] was 5.6. In addition, the entries for the “clinical activity (in words)” value in series [4] (listed as Dalantercept) and in series [4] (listed as dalantercept) were “demonstrated activity in a subset of patients with SCCHN” and “signs of clinical activity; also recorded: stable disease”, respectively. Besides, the “Average changes in body weight” value in series [3] (setting [8]) is reported as 9.1%. The “toxicity as monitored by changes in animal body weight (in words)” value in series [3] (dosing period to day 30) is “did not show any sign of acute toxicity”. The “proportion of patients with stable disease (SD) >3 cycles” value in series [5] (0.6 mg/kg SC Q3W (n=3)) is 23%; in series [5] (1.2 mg/kg SC Q3W (n=10)), 37%. In addition, in series [5] (1 patient at 1.2 mg/kg SC Q3W, 41 evaluable patients), the “patients achieving a partial response (PR), RECIST 1.1” value is on record as 2.4%. For the same molecule, the “frequency of grade >3 related AEs” value in series [5] (46 patients enrolled, SC Q3W) is on record as 13%. Further, in series [5] (grade 1-2), the “most common drug-related adverse events (in words)” value is “anemia, fatigue, peripheral edema, headache, hyponatremia, and pleural effusion”.
As for `N.N.O=C([O-])C1(C(=O)[O-])CCC1.[Pt+2]` [Carboplatin], in series [1], the “typical maximum tolerated dose” value is reported as 600-800 mg/m^2.
